Here are results for 2 compounds from US9481669B2, “Pladienolide pyridine compounds and methods of use” (Eisai R&D Management Co., Ltd., priority 2014, dated 2016).

For data set [1] the following is noted: patients; administered as intravenous infusion; cited from earlier work.
Data set [2] in a line: pH stability measurement (UPLC, 0.1 N HCl). It counts as physicochemical. Particulars: buffer, 24 h, 148 µM, pH 1. How it is done: Compounds were provided in 96-well plates and tested in triplicate. Four microliters of a 10 mM stock solution of compound in DMSO were distributed into each of three wells. The plate was stored at or below −20° C. until the day of the analysis. Methanol (HPLC grade) and 0.1 N HCl (EMD catalog HX0603A-6) were used for dilutions. Acetonitrile (HPLC grade), water (Milli-Q filtered), trifluoroacetic acid (spectral grade) and 0.2M phosphate buffer (Wako, catalog no. 163-14471) were used to prepare the mobile phase for the two analyses.
Stability data was obtained using a Waters Acquity UPLC equipped with a UV detector (Waters TUV) and single quadrupole MS detector (Waters SQD). The 96-well plate containing the compound(s) of interest was(were) removed from the freezer and allowed to warm to room temperature for one hour. The UPLC was primed, equilibrated and the system performance was verified by injecting a standard. After 1 hour, each of the three wells was diluted with 266 μL 0.1 N HCl to give pH=1. The plate was covered and placed on a shaker (Eppindorf Thermomixer R) for 45 minutes at 600 rpm. The plate was removed from the shaker, and the contents of each well were filtered through a filtration plate (Millipore catalog no. MSSLBPC50) by vacuum and injected into the UPLC. After approximately 24 hours, the contents of the wells were re-injected into the UPLC.
Stability in the various buffers was measured by comparing the peak area- % of the analyte in methanol versus the peak area- % of the analyte at the same retention time in 0.1 N HCl buffer in the 24 hr time point injection.

For the next data set, the system named is U251 human glioma cells. Particulars: U251 human glioma cells in vitro; read-out: IC50, glioma cell proliferation; cited from earlier work.
In data set [3] the test system is reporter gene controlled by human VEGF promoter. Particulars: read-out: IC50, VEGF-promoted gene expression; cited from earlier work.
Data set [4] deals with WiDr-R cells (colon cancer cells, SF3B1 R1074H mutation). To be noted: cited from earlier work.

On to `CCC(O)C(C)C1OC1CC(C)(O)/C=C/C=C(\C)C1OC(=O)CC(O)CCC(C)(O)C(OC(=O)N2CCN(C3CCCCCC3)CC2)/C=C/C1C` (centres unmarked) [Compound E7107, (8E,12E,14E)-7-((4-Cycloheptylpiperazin-1-yl)carbonyl)oxy-3,6,16,21-tetrahydroxy-6,10,12,16,20-pentamethyl-18,19-epoxytricosa-8,12,14-trien-11-olide, reference compound], for which the oral bioavailability entry in data set [1] is “insufficient oral bioavailability”. In addition, the “% parent remaining (pH = 1, 24 hours)” value in data set [2] was 44%.
Take Pladienolide B: the IC50 was 3.5 nM with U251 human glioma cells and 1.8 nM in data set [3]. In addition, in data set [4], the “resistance of WiDr-R cells in terms of growth inhibition” value was “resistant to pladienolide B in terms of growth inhibition”.
